Measured values taken from ChEMBL document CHEMBL2331106, “Discovery of 5-phenoxy-1,3-dimethyl-1H-pyrazole-4-carboxamides as potent agonists of TGR5 via sequential combinatorial libraries” (Bioorg Med Chem Lett, 2013).

Experiments:
[1] = molecular target: T1, G-protein coupled bile acid receptor 1 (Homo sapiens, UniProt Q8TDU6); experiment: Agonist activity at human TGR5 receptor in CHO cells assessed as elevation of cAMP level by uninduced cAMP detection method in absence of doxycycline; type: functional, cell-based
T1 sequence (Q8TDU6 whole entry): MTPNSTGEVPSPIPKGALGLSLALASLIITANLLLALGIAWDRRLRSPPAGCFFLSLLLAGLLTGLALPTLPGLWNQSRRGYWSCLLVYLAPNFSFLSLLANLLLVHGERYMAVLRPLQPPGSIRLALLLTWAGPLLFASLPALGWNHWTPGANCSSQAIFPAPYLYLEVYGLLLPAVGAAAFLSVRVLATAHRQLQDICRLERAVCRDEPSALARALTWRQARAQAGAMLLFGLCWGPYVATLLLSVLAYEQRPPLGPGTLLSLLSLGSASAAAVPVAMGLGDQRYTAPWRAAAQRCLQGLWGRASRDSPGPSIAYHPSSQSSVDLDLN

[2] = molecular target: T1, G-protein coupled bile acid receptor 1; experiment: Agonist activity at doxycycline-promoter regulated overexpressed human TGR5 receptor in CHO cells assessed as elevation of cAMP level by induced-cAMP assay; type: functional, cell-based
[3] = Distribution coefficient, log D of the compound by shake flask method; type: physicochemical; settings: octanol/water
Homo sapiens = species: Homo sapiens; experiment: Ex vivo activation of TGR5 in human PBMC assessed as elevation of cAMP level by cAMP assay
[4] = Intrinsic clearance in human liver microsomes; type: ADME, Microsome; settings: read-out: CLH

SMILES | EC50 [1] [nM] | EC50 [2] [nM] | logD [3] | EC50 (Homo sapiens) [nM] | microsomal CLint [4] [µL/min/mg]
Cc1nn(C)c(Oc2ccccc2)c1C(=O)N1CCCCC1c1cccnc1 (centres undefined) | > 10000 | 920 | 2.4 | – | –
Cc1nn(C)c(Oc2cccc(Cl)c2Cl)c1C(=O)N1CCCC[C@@H]1c1cccnc1 | – | – | – | 379 | –
Cc1nn(C)c(Oc2cccnc2)c1C(=O)N1CCCCC1c1cccnc1 (centres undefined) | > 10000 | > 10000 | 1.4 | – | –
Cc1ccc(N(C)C(=O)c2c(-c3ccccc3Cl)noc2C)cc1Cl | – | – | 3.6 | – | > 320
